Reference: patent US10457707B2, “Substituted urea depsipeptide analogs as activators of the CLPP endopeptidase” (priority 2015, dated 2019)
≈ marks a conversion by molar mass, not a printed value. *1 amine or outer side, *2 acyl side, *3 side chain or, on linkers, in order; H or OH if unused. Where a SMILES comes first, the peptide text is derived from it. Bridges are numbered along the chain shown (N, C = ends). [ ]: non-standard residue; d: D form. The star is where a group is joined. ξ: configuration not given here. Phe(3,5-F2) = N[C@@H](Cc1cc(F)cc(F)c1)C(=O)O; NH(1-Me-indolin-5-yl) = CN1CCc2cc(N*)ccc21; Morpholine(3S-CO) = O=C(O)[C@@H]1COCCN1; Pro(4S-Me) = C[C@@H]1CN[C@H](C(=O)O)C1; NH(4-Cl-2-F-phenyl) = Fc1cc(Cl)ccc1N*; Pro(4R-Me) = C[C@H]1CN[C@H](C(=O)O)C1; NH(3,4-Me2-phenyl) = Cc1ccc(N*)cc1C; NMeaThr = CN[C@H](C(=O)O)[C@H](C)O; Hyp = O=C(O)[C@@H]1C[C@@H](O)CN1; NH(4-Et-phenyl) = CCc1ccc(N*)cc1; NH(4-Me-phenyl) = Cc1ccc(N*)cc1; ξNMeThr = CNC(C(=O)O)[C@@H](C)O; aThr = C[C@H](O)[C@H](N)C(=O)O; Pip = O=C(O)[C@@H]1CCCCN1; CO = O=C([*:1])[*:2]

Tested on: Streptococcus pneumoniae, R6
Test: Minimal inhibitory concentration assay
Format: cell-based
Conditions: read-out: Minimal Inhibitory Concentrations S. pneumoniae R6
Method in brief: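 Microbroth dilution with two-fold serial compound dilutions in broth, incubated aerobically overnight at 37° C. MIC taken as the lowest concentration preventing bacterial growth.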

Row | SMILES | MIC
1 | C[C@@H]1C[C@H]2C(=O)OC[C@H](NC(=O)[C@H](Cc3cc(F)cc(F)c3)NC(=O)Nc3ccc4c(c3)OCO4)C(=O)N3CCC[C@H]3C(=O)N3CCCC[C@H]3C(=O)N[C@@H](C)C(=O)N2C1 [Compound 195, (S)-2-(3-(benzo[d][1,3]dioxol-5-yl)ureido)-3-(3,5-difluorophenyl)-N-((2R,6S,8aS,14aS,20S,23aS)-2,6-dimethyl-5,8,14,19,23-pentaoxooctadecahydro-1H,5H,14H,19H-pyrido[2,1-i]dipyrrolo[2,1-c:2′,1′-l][1]oxa[4,7,10,13]tetraazacyclohexadecin-20-yl)propanamide] | 0.1 µM (≈ 0.0824 µg/mL)
2 | C[C@@H]1C[C@H]2C(=O)O[C@@H](C)[C@H](NC(=O)[C@H](Cc3cc(F)cc(F)c3)NC(=O)Nc3ccc(Cl)cc3F)C(=O)N3CCC[C@H]3C(=O)N(C)C([C@@H](C)O)C(=O)N[C@@H](C)C(=O)N2C1 (stereo partly drawn) [Compound 313, (S)-2-(3-(4-chloro-2-fluorophenyl)ureido)-3-(3,5-difluorophenyl)-N-((2R,6S,9R,11aS,17S,18S,20aS)-9-((R)-1-hydroxyethyl)-2,6,10,18-tetramethyl-5,8,11,16,20-pentaoxohexadecahydro-1H,5H,16H-dipyrrolo[2,1-c:2′,1′-l][1]oxa[4,7,10,13]tetraazacyclohexadecin-17-yl)propanamide] ({NH(4-Cl-2-F-phenyl)-CO}-[Phe(3,5-F2)][aThr]P[ξNMeThr]A[Pro(4R-Me)]; ester 2-C) | < 0.02 µM
3 | C[C@@H]1C[C@H]2C(=O)O[C@@H](C)[C@H](NC(=O)[C@H](Cc3cc(F)cc(F)c3)NC(=O)Nc3ccc(Cl)cc3F)C(=O)N3C[C@H](O)C[C@H]3C(=O)N3CCOC[C@H]3C(=O)N[C@@H](C)C(=O)N2C1 [Compound 316, (S)-2-(3-(4-chloro-2-fluorophenyl)ureido)-3-(3,5-difluorophenyl)-N-((6aS,8R,12S,13S,15aS,17R,21S,23aS)-8-hydroxy-13,17,21-trimethyl-6,11,15,20,23-pentaoxooctadecahydro-6H,11H,15H-[1,4]oxazino[3,4-i]dipyrrolo[2,1-c:2′,1′-l][1]oxa[4,7,10,13]tetraazacyclo-hexadecin-12-yl)propanamide] ({NH(4-Cl-2-F-phenyl)-CO}-[Phe(3,5-F2)][aThr][Hyp][Morpholine(3S-CO)]A[Pro(4R-Me)]; ester 2-C) | < 0.02 µM
4 | CCc1ccc(NC(=O)N[C@@H](Cc2cc(F)cc(F)c2)C(=O)N[C@@H]2C(=O)N3CCC[C@H]3C(=O)N(C)[C@@H]([C@H](C)O)C(=O)N[C@@H](C)C(=O)N3C[C@@H](C)C[C@H]3C(=O)O[C@H]2C)cc1 [Compound 204, (S)-3-(3,5-difluorophenyl)-2-(3-(4-ethylphenyl)ureido)-N-((2S,6S,9S,11aS,17S,18S,20aS)-9-((S)-1-hydroxyethyl)-2,6,10,18-tetramethyl-5,8,11,16,20-pentaoxohexadecahydro-1H,5H,16H-dipyrrolo[2,1-c:2′,1′-l][1]oxa[4,7,10,13]tetraazacyclohexadecin-17-yl)propanamide] ({NH(4-Et-phenyl)-CO}-[Phe(3,5-F2)][aThr]P[NMeaThr]A[Pro(4S-Me)]; ester 2-C) | 0.024 µM (≈ 0.0198 µg/mL)
5 | Cc1ccc(NC(=O)N[C@@H](Cc2cc(F)cc(F)c2)C(=O)N[C@H]2COC(=O)[C@@H]3C[C@@H](C)CN3C(=O)[C@H](C)NC(=O)C3CCCCN3C(=O)[C@@H]3C[C@@H](O)CN3C2=O)cc1 (stereo partly drawn) [Compound 323, (S)-3-(3,5-difluorophenyl)-N-((2R,6S,8aR,14aS,16R,20S,23aS)-16-hydroxy-2,6-dimethyl-5,8,14,19,23-pentaoxooctadecahydro-1H,5H,14H,19H-pyrido[2,1-i]dipyrrolo[2,1-c:2′,1′-l][1]oxa[4,7,10,13]tetraazacyclohexadecin-20-yl)-2-(3-(p-tolyl)ureido)propanamide] | 0.078 µM (≈ 0.0632 µg/mL)
6 | Cc1ccc(NC(=O)N[C@@H](Cc2cc(F)cc(F)c2)C(=O)N[C@@H]2C(=O)N3C[C@H](O)C[C@H]3C(=O)N3CCCC[C@H]3C(=O)N[C@@H](C)C(=O)N3C[C@H](C)C[C@H]3C(=O)O[C@H]2C)cc1C [Compound 212, (S)-3-(3,5-difluorophenyl)-2-(3-(3,4-dimethylphenyl)ureido)-N-((2R,6S,8aS,14aS,16R,20S,21S,23aS)-16-hydroxy-2,6,21-trimethyl-5,8,14,19,23-pentaoxooctadecahydro-1H,5H,14H,19H-pyrido[2,1-i]dipyrrolo[2,1-c:2′,1′-l][1]oxa[4,7,10,13]tetraazacyclohexadecin-20-yl)propanamide] ({NH(3,4-Me2-phenyl)-CO}-[Phe(3,5-F2)][aThr][Hyp][Pip]A[Pro(4R-Me)]; ester 2-C) | 0.002 µM (≈ 0.00168 µg/mL)
7 | CCc1ccc(NC(=O)N[C@@H](Cc2cc(F)cc(F)c2)C(=O)N[C@@H]2C(=O)N3C[C@H](O)C[C@H]3C(=O)N3CCCC[C@H]3C(=O)N[C@@H](C)C(=O)N3C[C@H](C)C[C@H]3C(=O)O[C@H]2C)cc1 [Compound 211, (S)-3-(3,5-difluorophenyl)-2-(3-(4-ethylphenyl)ureido)-N-((2R,6S,8aS,14aS,16R,20S,21S,23aS)-16-hydroxy-2,6,21-trimethyl-5,8,14,19,23-pentaoxooctadecahydro-1H,5H,14H,19H-pyrido[2,1-i]dipyrrolo[2,1-c:2′,1′-l][1]oxa[4,7,10,13]tetraazacyclohexadecin-20-yl)propanamide] ({NH(4-Et-phenyl)-CO}-[Phe(3,5-F2)][aThr][Hyp][Pip]A[Pro(4R-Me)]; ester 2-C) | 0.005 µM (≈ 0.00419 µg/mL)
8 | C[C@@H]1C[C@H]2C(=O)O[C@@H](C)[C@H](NC(=O)[C@H](Cc3cc(F)cc(F)c3)NC(=O)Nc3ccc4c(c3)CCN4C)C(=O)N3CCC[C@H]3C(=O)N3CCOC[C@H]3C(=O)N[C@@H](C)C(=O)N2C1 [Compound 312, (S)-3-(3,5-difluorophenyl)-2-(3-(1-methylindolin-5-yl)ureido)-N-((6aS,12S,13S,15aS,17R,21S,23aS)-13,17,21-trimethyl-6,11,15,20,23-pentaoxooctadecahydro-6H,11H,15H-[1,4]oxazino[3,4-i]dipyrrolo[2,1-c:2′,1′-l][1]oxa[4,7,10,13]tetraazacyclo-hexadecin-12-yl)propanamide] ({NH(1-Me-indolin-5-yl)-CO}-[Phe(3,5-F2)][aThr]P[Morpholine(3S-CO)]A[Pro(4R-Me)]; ester 2-C) | 0.078 µM (≈ 0.0664 µg/mL)
9 | Cc1ccc(NC(=O)N[C@@H](Cc2cc(F)cc(F)c2)C(=O)N[C@@H]2C(=O)N3CCC[C@H]3C(=O)N3CCCC[C@H]3C(=O)N[C@@H](C)C(=O)N3C[C@H](C)C[C@H]3C(=O)O[C@H]2C)cc1 [Compound 209, (S)-3-(3,5-difluorophenyl)-2-(3-(p-tolyl)ureido)-N-((2R,6S,8aS,14aS,20S,21S,23aS)-2,6,21-trimethyl-5,8,14,19,23-pentaoxooctadecahydro-1H,5H,14H,19H-pyrido[2,1-i]dipyrrolo[2,1-c:2′,1′-l][1]oxa[4,7,10,13]tetraazacyclohexadecin-20-yl)propanamide] ({NH(4-Me-phenyl)-CO}-[Phe(3,5-F2)][aThr]P[Pip]A[Pro(4R-Me)]; ester 2-C) | 0.05 µM (≈ 0.0404 µg/mL)
10 | C[C@@H]1C[C@H]2C(=O)OC[C@H](NC(=O)[C@H](Cc3ccccc3)NC(=O)Nc3ccc(OC(F)(F)F)cc3)C(=O)N3CCC[C@H]3C(=O)N3CCCC[C@H]3C(=O)N[C@@H](C)C(=O)N2C1 [Compound 205] | 0.2 µM (≈ 0.166 µg/mL)
